Test results taken from US20260294915A1, “COMBINATION THERAPY COMPRISING A MAT2A INHIBITOR AND A TOPOISOMERASE INHIBITOR, A SPLICING INHIBITOR SULFONAMIDE, OR A KIF18 INHIBITOR” (IDEAYA BIOSCIENCES, INC., priority 2023, published 2026).
Structures can show the parent of a compound that is named as a salt.

Experiments:
UMUC5 = test: 10-day proliferation (CTG), equimolar Compound A + SPLAM (Example 4); type: cell-based; settings: single agent or 1:1 combo
Experimental: (§1) A 10-day proliferation assay was performed in a panel of 5 MTAP-deficient and 2 wild type non-small cell lung and bladder cancer cell lines. Optimal cell seeding for all cell lines was determined by assessing the growth over a range of seeding densities in a 384-well format to identify conditions that permitted proliferation for 10 days. Cells were then plated at the optimal seeding density and treated with 20-point, two-fold dilution series of Compound A, the splicing inhibitor sulfonamide (SPLAM), or an equimolar combination of Compound A and the SPLAM. Combinations tested included Compound A in combination with four structurally different SPLAMs. Concentrations tested for Compound A and each SPLAM alone or in combination ranged from 0.04 nM to 20,000 nM. A plate of cells was harvested at the time of compound addition to quantify the number of cells at the start of the combination (T0). For cell quantification, the harvested cells were lysed with Promega CellTiter-Glo (CTG) reagent according to the manufacturer's protocol and the chemiluminescent signal was detected on a Synergy Neo plate reader. CTG estimates cell number through detection of cellular ATP levels. Cells were incubated with the drug combinations at 37° C. with 5% CO2 for 10 days. Cells were then lysed with CTG and the chemiluminescent signal was measured.
(§2) CTG values obtained after the 10-day treatment were background subtracted and expressed as a percent of the T0 value. Data were plotted against compound concentration and fit with a four-parameter equation to generate dose response curves for each single agent and the equimolar combination. Growth ICx (gICx) values ranging from gIC30 to gIC100 were interpolated from the fitted curves. Synergistic growth inhibition was assessed by determination of Combination Index (CI) values at these various points across the titration using the mutually non-exclusive equation [Chou, 1983; Chou, 1981] shown below where A equals the gICx value of Compound A, B equals the gICx value of the SPLAM, and A+B or B+A equals the gICx value of the equimolar combination. A Combination Index value less than 1.0 was considered synergistic.

TCCSUP = test: as above; type: cell-based; settings: single agent or 1:1 combo
Experimental: as §1, §2

RT112/84 = test: as above; type: cell-based; settings: single agent or 1:1 combo
Experimental: as §1, §2

NCI-H838 = test: as above; type: cell-based; settings: single agent or 1:1 combo
Experimental: as §1, §2

NCI-H520 = test: as above; type: cell-based; settings: single agent or 1:1 combo
Experimental: as §1, §2

UMUC11 = test: as above; type: cell-based; settings: single agent or 1:1 combo
Experimental: as §1, §2

SW900 = test: as above; type: cell-based; settings: single agent or 1:1 combo
Experimental: as §1, §2

[1] = tested on: LMSU (RCB1062) human gastric tumor cell-derived xenograft (CDX) models; test: Anti-tumor activity in LMSU gastric mouse xenograft (CDX) model (Example 9); type: in vivo; settings: 3 days on/4 days holiday; for Day 11 TV (mean): initial TV 185, vehicle 1018
Experimental: (§3) All mouse studies were approved by the Institutional Animal Care and Use Committee (IACUC) based on guidelines from the National Institutes of Health (NIH). Mice were maintained under pathogen-free conditions, and food and water were provided ad libitum.
(§4) The anti-tumor effect of Compound A and irinotecan hydrochloride as single-agents or in combination was assessed in the LMSU (RCB1062) human gastric tumor cell-derived xenograft (CDX) models. LMSU was expanded in HamF10 with 10% fetal bovine serum. Cells were free of mycoplasma and authenticated by STR profiling, and ten million cells in log growth phase were resuspended in Hanks Balanced Salt Solution containing 50% Matrigel and implanted subcutaneously into the flank of each recipient female Crl:NU-Foxn1nu mouse. Mice were housed in microisolator cages with corn cob bedding with additional enrichment consisting of sterile nesting material (Innovive) and Bio-huts (Bio-Serv). Water (Innovive) and diet (Teklad Global 19% Protein Extruded Diet 2919, Irradiated) were provided ad libitum. The environment was maintained on a 12-hour light cycle at approximately 68-72° F. and 40-60% relative humidity.
(§5) Tumor Volume (TV) was calculated using the following formula: TV (mm^3)=(width×width×length)/2. Tumor growth inhibition (TGI) was calculated by [(TV controlfinal−TV treatedfinal)/(TV controlfinal−TV controlinitial)×100]. TV was analyzed for statistical significance utilizing GraphPad Prism version 10.2.2. Repeated Measures 2-Way ANOVA with Dunnet's Multiple Comparisons was utilized, and P-values were derived from data collected on the date of Vehicle group termination and were considered statistically significant if less than 0.05.
(§6) Mean tumor volume at dosing start was approximately 185 mm^3, with seven mice randomized to each treatment group. Mice were dosed orally, once per day, with Vehicle, Compound A at 10 mg/kg, or dosed for 3 consecutive days followed by 4 days holiday by intraperitoneal (IP) injection of Compound B at 5 mg/kg or 10 mg/kg, or combination of Compound A and Compound B. The vehicle group was a combination of Vehicle A (for Compound A, 0.5% 400 cps methylcellulose with 0.5% Tween-80 in sterile water) and Vehicle B (for irinotecan hydrochloride, Saline).

[2] = tested on: RT112/84 human bladder tumor cell-derived xenograft (CDX) model; test: Anti-tumor activity in RT112/84 mouse xenograft (CDX) model (Example 7); type: in vivo
Experimental: as §3
The anti-tumor effect of Compound A and irinotecan hydrochloride as single-agents or in combination was assessed in the RT112/84 human bladder tumor cell-derived xenograft (CDX) model. Cells were expanded in RPMI-1640 (Gibco, Catalog Number 11875093) with 10% fetal bovine serum. These cells were free of mycoplasma and authenticated by STR profiling. Five million cells in log growth phase were resuspended in Hanks Balanced Salt Solution containing 50% Matrigel and implanted subcutaneously into the flank of each recipient female Crl:NU-Foxnlnu mouse. Mice were housed in microisolator cages with corn cob bedding with additional enrichment consisting of sterile nesting material (Innovive) and Bio-huts (Bio-Serv). Water (Innovive) and diet (Teklad Global 19% Protein Extruded Diet 2919, Irradiated) were provided ad libitum. The environment was maintained on a 12-hour light cycle at approximately 68-72° F. and 40-60% relative humidity.
as §5, with “10.0.3.” for “10.2.2.”, “Tukey's” for “Dunnet's”, “Day 14 (date” for “the date”, “termination)” for “termination”, “0.05. Tumor regression was calculated by using the percent change in tumor volume from the final tumor volume measurement from Day 73 when compared to the initial tumor volume from Day 1. Tumor regression was defined as reduced TV on Day 73 compared to Day 1. Tumor regression rate was defined as the percentage of animals per group with tumor regression.” for “0.05.”
as §6, with “249” for “185”, “ten” for “seven”, “5” for “5 mg/kg or 10”

[3] = tested on: MKN45 (RCB1001) human gastric tumor cell-derived xenograft (CDX) model; test: Anti-tumor activity in MKN45 gastric mouse xenograft (CDX) model (Example 8); type: in vivo; settings: 3 days on/4 days holiday
Experimental: as §3
as §4, with “MKN45 (RCB1001)” for “LMSU (RCB1062)”, “model. MKN45” for “models. LMSU”, “RPMI1640” for “HamF10”
as §5
as §6, with “190” for “185”, “six” for “seven”

[4] = irinotecan hydrochloride 5 mg/kg IP
[5] = irinotecan hydrochloride 10 mg/kg IP
[6] = irinotecan hydrochloride 5 mg/kg IP, 3 days on/4 days holiday

Compound: O=C(NS(=O)(=O)c1ccc(Br)s1)c1ccc(Cl)cc1Cl [Tasisulam, N-((5-bromothiophen-2-yl)sulfonyl)-2,4-dichlorobenzamide]
- gIC30 (UMUC5): 16.121 µM
- gIC40 (UMUC5): 16.834 µM
- gIC60 (UMUC5): 18.053 µM
- gIC70 (UMUC5): 18.592 µM
- gIC100 (UMUC5): 20 µM
- IC80 (UMUC5; 14400 min, read-out: gIC80): 19.1 µM
- IC90 (UMUC5; 14400 min, read-out: gIC90): 19.6 µM
- IC50 (UMUC5; read-out: gIC50): 17.5 µM
- IC50 (TCCSUP; Homo sapiens, TCC-SUP, read-out: gIC50): 20 µM
- gIC30 (TCCSUP): 20 µM
- gIC40 (TCCSUP): 20 µM
- gIC60 (TCCSUP): 20 µM
- gIC70 (TCCSUP): 20 µM
- gIC100 (TCCSUP): 20 µM
- IC80 (TCCSUP; 14400 min, read-out: gIC80): 20 µM
- IC90 (TCCSUP; 14400 min, read-out: gIC90): 20 µM
- IC50 (RT112/84; Homo sapiens, RT112/84, read-out: gIC50): 20 µM
- gIC30 (RT112/84): 20 µM
- gIC40 (RT112/84): 20 µM
- gIC60 (RT112/84): 20 µM
- gIC70 (RT112/84): 20 µM
- gIC100 (RT112/84): 20 µM
- IC80 (RT112/84; 14400 min, read-out: gIC80): 20 µM
- IC90 (RT112/84; 14400 min, read-out: gIC90): 20 µM
- IC50 (NCI-H838; Homo sapiens, NCI-H838, read-out: gIC50): 4.93 µM
- gIC30 (NCI-H838): 7.419 µM
- gIC40 (NCI-H838): 4.551 µM
- gIC60 (NCI-H838): 5.372 µM
- gIC70 (NCI-H838): 5.923 µM
- gIC100 (NCI-H838): 20 µM
- IC80 (NCI-H838; 14400 min, read-out: gIC80): 6.69 µM
- IC90 (NCI-H838; 14400 min, read-out: gIC90): 7.97 µM
- IC50 (NCI-H520; Homo sapiens, NCI-H520, read-out: gIC50): 11.2 µM
- gIC30 (NCI-H520): 9.551 µM
- gIC40 (NCI-H520): 10.354 µM
- gIC60 (NCI-H520): 12.274 µM
- gIC70 (NCI-H520): 13.716 µM
- gIC100 (NCI-H520): 20 µM
- IC80 (NCI-H520; 14400 min, read-out: gIC80): 16.4 µM
- IC90 (NCI-H520; 14400 min, read-out: gIC90): 12 µM
- gIC30 (UMUC11): 17.77 µM
- gIC40 (UMUC11): 18.358 µM
- gIC60 (UMUC11): 19.349 µM
- gIC70 (UMUC11): 19.781 µM
- gIC100 (UMUC11): 20 µM
- IC80 (UMUC11; 14400 min, read-out: gIC80): 20 µM
- IC90 (UMUC11; 14400 min, read-out: gIC90): 20 µM
- IC50 (UMUC11; read-out: gIC50): 18.9 µM
- IC50 (SW900; Homo sapiens, SW900, read-out: gIC50): 20 µM
- gIC30 (SW900): 20 µM
- gIC40 (SW900): 20 µM
- gIC60 (SW900): 20 µM
- gIC70 (SW900): 20 µM
- gIC100 (SW900): 20 µM
- IC80 (SW900; 14400 min, read-out: gIC80): 20 µM
- IC90 (SW900; 14400 min, read-out: gIC90): 20 µM

Compound: CCc1c2c(nc3ccc(OC(=O)N4CCC(N5CCCCC5)CC4)cc13)-c1cc3c(c(=O)n1C2)COC(=O)[C@]3(O)CC [irinotecan hydrochloride]
- Day 11 TGI [1, 4]: 42%
- Tumor Regression Rate on Day 11 [1, 4]: 0%
- Day 11 TV (mean) [1, 4]: 671 mm^3
- Day 11 TGI [1, 5]: 80%
- Tumor Regression Rate on Day 11 [1, 5]: 14%
- Day 11 TV (mean) [1, 5]: 353 mm^3
- TGI ([2]; Compound A 10 mg/kg oral once per day, irinotecan 5 mg/kg IP 3 days on/4 days off): 83%
- response rate (mice with tumor regressions) ([2]; day 73, Compound A 10 mg/kg oral, irinotecan 5 mg/kg IP): 30%
- Day 14 TGI [2, 6]: 83%
- Tumor Regression Rate on Day 73 [2, 6]: 30%
- Day 14 TV (mean) ([2]; irinotecan hydrochloride 5 mg/kg IP, 3 days on/4 days holiday, initial TV 249, vehicle 1069): 387 mm^3
- Day 25 TGI [3, 4]: 49%
- Tumor Regression Rate on Day 25 [3, 4]: 0%
- Day 25 TV (mean) ([3]; irinotecan hydrochloride 5 mg/kg IP, initial TV 190, vehicle 1396): 807 mm^3
- Day 25 TGI [3, 5]: 85%
- Tumor Regression Rate on Day 25 [3, 5]: 17%
- Day 25 TV (mean) ([3]; irinotecan hydrochloride 10 mg/kg IP, initial TV 192, vehicle 1396): 369 mm^3
